Earlier results in patent publication US12138268B2, “Treatment of erectile dysfunction and other indications” (Strategic Science & Technologies, LLC, priority 2009, dated 2024).

CCCOc1ccc(S(=O)(=O)N2CCN(CCO)CC2)cc1-c1nc2c(CCC)cn(CC)c2c(=O)[nH]1 [mirodenafil]
pKa: 6.0
